In ChEMBL document CHEMBL1201862, “PubChem BioAssay data set” (2004):
Active and inactive are the calls of the source.

Experiments:
[1] = growth suppression of PTEN-null colon cells, dose response, cell-based, HCT116 PTEN knockout (AID 1047); assay type: functional;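 note: HCT116 colon tumor cells with PTEN knocked out; cells exposed to compound for 60 hours before readout; potency for loss of cell viability measured by luminescence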
[2] = growth suppression of beta-catenin-knockout colon cells, dose response, cell-based, HCT116, human colon tumor (AID 1045); assay type: functional;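 note: HCT116 colon tumor cells with beta catenin knocked out; cells exposed to compound for 60 hours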
[3] = THP-1 cell cytotoxicity, dose response, cytotoxicity control for non-replicating M. tuberculosis project (AID 489025); assay type: functional
[4] = Vero E6 cell cytotoxicity, dose response, cytotoxicity control for non-replicating M. tuberculosis project, secondary assay (AID 492998); assay type: functional, VeroE6; conditions: Vero C1008
cells = assay type: functional
Leucine aminopeptidase = target: T1, Leucine aminopeptidase (Plasmodium falciparum 3D7, UniProt Q8IL11); assay: P. falciparum M17LAP inhibitors, primary screen, biochemical, fluorogenic H-Leu-NHMec substrate, 1536-well (AID 1619); assay type: functional
T1 sequence (Q8IL11 whole entry): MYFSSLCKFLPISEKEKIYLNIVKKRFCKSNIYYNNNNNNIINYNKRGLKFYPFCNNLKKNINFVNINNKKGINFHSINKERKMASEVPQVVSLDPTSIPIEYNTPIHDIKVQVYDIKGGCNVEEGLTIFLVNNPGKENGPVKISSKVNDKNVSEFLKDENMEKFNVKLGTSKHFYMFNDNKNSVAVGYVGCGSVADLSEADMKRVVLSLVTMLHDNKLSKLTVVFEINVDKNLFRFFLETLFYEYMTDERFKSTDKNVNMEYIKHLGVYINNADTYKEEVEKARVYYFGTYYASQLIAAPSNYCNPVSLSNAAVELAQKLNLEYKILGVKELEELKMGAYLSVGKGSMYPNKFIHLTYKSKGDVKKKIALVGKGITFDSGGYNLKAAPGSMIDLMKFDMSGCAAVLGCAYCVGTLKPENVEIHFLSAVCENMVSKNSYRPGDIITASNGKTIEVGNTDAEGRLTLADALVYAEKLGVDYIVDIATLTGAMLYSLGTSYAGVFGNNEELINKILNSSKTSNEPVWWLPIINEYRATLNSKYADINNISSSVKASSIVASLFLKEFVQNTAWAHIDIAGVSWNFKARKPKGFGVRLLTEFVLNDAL

[5] = target: T2, Mannose-6-phosphate isomerase (Homo sapiens, UniProt P34949); assay: human PMI inhibitors, high substrate, primary screen, biochemical, fluorescence intensity, high mannose 6-phosphate (AID 1220)
T2 sequence (P34949 whole entry): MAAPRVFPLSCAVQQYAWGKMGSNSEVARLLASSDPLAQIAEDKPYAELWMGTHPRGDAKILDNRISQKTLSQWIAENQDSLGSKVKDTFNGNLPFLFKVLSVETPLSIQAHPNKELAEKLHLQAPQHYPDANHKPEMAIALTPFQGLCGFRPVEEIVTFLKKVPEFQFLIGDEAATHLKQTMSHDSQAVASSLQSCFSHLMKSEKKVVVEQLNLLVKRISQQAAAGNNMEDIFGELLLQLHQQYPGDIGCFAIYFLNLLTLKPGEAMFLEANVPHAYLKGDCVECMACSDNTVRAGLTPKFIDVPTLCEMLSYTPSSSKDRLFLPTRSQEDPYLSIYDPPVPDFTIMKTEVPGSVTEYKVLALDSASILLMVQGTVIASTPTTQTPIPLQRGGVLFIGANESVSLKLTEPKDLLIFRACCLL

[6] = target: T3, Rac GTPase-activating protein 1 (Homo sapiens, UniProt Q9H0H5); assay: MgcRacGAP GTPase-activating activity inhibitors, confirmation, biochemical, ADP Hunter fluorescence, primary and confirmatory (AID 624330); assay type: functional
T3 sequence (Q9H0H5 whole entry): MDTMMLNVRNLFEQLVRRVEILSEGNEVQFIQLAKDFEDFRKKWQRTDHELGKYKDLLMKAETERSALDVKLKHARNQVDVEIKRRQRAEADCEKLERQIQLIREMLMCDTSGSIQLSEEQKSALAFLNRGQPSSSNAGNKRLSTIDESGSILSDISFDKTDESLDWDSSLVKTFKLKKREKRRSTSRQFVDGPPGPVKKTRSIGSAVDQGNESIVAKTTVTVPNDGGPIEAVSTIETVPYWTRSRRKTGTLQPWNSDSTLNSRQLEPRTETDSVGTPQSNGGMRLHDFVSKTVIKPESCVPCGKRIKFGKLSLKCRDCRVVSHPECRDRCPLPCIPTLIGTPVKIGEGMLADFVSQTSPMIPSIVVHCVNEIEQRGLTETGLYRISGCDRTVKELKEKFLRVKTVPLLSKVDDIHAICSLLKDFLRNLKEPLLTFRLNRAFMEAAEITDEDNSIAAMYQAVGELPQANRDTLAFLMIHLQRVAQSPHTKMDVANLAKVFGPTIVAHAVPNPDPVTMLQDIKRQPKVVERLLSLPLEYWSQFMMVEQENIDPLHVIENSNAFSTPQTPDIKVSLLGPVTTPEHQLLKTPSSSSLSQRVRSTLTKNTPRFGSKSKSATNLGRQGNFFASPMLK

[7] = inhibitors of Vif binding to APOBEC3G peptide, primary screen, biochemical, TR-FRET, GST-Vif 1-94, biotin-A3G peptide, dose response retest (AID 1117319); assay type: functional;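 note: TR-FRET signal of purified GST-Vif binding a biotinylated A3G peptide; inhibitors lower the FRET signal by blocking Vif and A3G binding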
[8] = target: Disintegrin and metalloproteinase domain-containing protein 17 (Homo sapiens, UniProt P78536); assay: exosite inhibitors of ADAM17, dose response, biochemical (AID 743260)
Disintegrin and metalloproteinase domain-containing protein 17, sequence (P78536 whole entry, the tested form may be a part): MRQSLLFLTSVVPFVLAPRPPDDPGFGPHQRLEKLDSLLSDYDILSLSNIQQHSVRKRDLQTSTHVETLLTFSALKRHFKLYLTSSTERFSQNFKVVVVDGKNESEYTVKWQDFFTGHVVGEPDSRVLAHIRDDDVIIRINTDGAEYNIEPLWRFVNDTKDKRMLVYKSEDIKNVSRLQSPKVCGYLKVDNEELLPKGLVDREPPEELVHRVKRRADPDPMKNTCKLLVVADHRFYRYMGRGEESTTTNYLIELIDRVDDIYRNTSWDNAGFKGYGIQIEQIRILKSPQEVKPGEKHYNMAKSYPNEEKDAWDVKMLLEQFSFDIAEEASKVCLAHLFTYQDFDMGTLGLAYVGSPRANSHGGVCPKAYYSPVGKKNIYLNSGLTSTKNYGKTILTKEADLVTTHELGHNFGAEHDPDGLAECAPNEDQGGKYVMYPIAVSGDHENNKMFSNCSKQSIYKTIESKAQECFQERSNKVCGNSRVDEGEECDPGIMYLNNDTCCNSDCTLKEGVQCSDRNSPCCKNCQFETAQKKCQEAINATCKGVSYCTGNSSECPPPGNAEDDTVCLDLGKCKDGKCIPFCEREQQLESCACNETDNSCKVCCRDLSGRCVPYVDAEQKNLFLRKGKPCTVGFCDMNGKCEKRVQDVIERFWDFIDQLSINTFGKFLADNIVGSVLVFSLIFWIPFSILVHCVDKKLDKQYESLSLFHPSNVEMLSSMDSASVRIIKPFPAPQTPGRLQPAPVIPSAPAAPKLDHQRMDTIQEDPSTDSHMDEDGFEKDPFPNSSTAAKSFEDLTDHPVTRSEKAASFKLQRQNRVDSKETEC

[9] = ADAM10 protease inhibitors, dose response, selectivity assay for ADAM17 exosite inhibitor project, biochemical, FRET peptide substrate, recombinant human ADAM10 (AID 743259);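 note: ADAM10 enzyme cleaving a FRET peptide substrate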
[10] = THP-1 cell cytotoxicity, dose response, cytotoxicity control for Vif-APOBEC3G degradation inhibitor project, THP-1 cells (AID 1117359); assay type: functional; conditions: Human immunodeficiency virus 1, THP-1
Aminopeptidase N = target: T4, Aminopeptidase N (Plasmodium falciparum FcB1/Columbia, UniProt O96935); assay: P. falciparum M1AAP inhibitors, biochemical, fluorogenic H-Leu-NHMec substrate, 1536-well (AID 1445); parameters: species or system Plasmodium falciparum 3D7, 3D7
T4 sequence (O96935 whole entry): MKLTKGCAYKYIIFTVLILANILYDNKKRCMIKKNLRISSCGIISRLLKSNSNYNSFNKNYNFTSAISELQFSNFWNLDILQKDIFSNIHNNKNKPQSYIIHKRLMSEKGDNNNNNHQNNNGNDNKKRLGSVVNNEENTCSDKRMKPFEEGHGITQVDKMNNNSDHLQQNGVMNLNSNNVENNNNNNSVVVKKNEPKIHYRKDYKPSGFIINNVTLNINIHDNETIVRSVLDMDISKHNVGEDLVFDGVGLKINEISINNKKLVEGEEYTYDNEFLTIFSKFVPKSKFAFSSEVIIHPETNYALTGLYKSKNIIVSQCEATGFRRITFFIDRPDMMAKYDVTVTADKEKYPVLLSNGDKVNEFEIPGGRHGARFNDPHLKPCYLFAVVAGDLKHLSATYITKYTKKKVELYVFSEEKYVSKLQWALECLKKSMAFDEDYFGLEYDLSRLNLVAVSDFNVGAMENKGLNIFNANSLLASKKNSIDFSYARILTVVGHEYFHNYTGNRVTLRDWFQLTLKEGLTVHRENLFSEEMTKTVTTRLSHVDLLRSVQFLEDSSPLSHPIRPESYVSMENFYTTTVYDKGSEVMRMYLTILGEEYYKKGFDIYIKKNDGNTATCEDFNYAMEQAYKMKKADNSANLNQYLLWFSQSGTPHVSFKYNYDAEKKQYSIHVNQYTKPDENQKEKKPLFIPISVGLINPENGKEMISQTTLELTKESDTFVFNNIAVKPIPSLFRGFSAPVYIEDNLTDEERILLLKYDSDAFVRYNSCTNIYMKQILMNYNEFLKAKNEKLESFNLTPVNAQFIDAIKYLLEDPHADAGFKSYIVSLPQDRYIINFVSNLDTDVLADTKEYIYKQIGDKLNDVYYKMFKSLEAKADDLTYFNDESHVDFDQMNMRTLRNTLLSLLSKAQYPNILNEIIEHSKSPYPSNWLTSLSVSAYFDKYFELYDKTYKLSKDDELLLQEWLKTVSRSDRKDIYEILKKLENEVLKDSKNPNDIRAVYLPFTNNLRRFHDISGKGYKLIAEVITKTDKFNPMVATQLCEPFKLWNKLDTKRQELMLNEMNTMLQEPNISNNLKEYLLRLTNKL

Genome polyprotein = Genome polyprotein (dengue virus type 2, UniProt P29990); assay: Dengue-2 NS5 methyltransferase inhibitors, primary screen, biochemical, confirmation dose response (AID 588689); assay type: functional
Genome polyprotein, sequence (P29990 2492-3391 limits assumed): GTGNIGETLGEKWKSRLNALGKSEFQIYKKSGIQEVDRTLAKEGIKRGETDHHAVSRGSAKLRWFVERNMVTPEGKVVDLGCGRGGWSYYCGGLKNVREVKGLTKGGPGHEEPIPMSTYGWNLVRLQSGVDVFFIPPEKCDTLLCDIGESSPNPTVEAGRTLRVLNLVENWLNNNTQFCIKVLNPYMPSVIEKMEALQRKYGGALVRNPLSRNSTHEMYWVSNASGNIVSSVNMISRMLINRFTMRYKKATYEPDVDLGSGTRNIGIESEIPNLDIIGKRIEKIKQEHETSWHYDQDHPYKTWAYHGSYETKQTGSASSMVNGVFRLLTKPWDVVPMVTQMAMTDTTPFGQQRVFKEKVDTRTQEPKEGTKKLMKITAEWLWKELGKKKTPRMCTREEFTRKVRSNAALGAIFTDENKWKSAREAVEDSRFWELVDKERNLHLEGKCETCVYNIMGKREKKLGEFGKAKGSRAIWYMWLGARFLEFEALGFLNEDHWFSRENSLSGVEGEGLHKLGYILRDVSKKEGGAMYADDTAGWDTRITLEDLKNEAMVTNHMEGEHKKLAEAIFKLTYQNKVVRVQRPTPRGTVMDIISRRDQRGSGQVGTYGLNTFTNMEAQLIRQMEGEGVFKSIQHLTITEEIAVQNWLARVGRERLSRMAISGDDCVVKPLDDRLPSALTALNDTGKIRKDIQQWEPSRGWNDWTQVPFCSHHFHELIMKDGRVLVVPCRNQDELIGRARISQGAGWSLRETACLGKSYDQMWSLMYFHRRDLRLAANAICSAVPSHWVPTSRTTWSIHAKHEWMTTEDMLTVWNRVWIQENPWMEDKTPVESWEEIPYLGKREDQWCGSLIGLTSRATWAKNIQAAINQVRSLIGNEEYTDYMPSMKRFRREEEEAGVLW

[11] = P. falciparum 3D7-ScDHODH growth inhibitors, dose response, SYBR Green, dry powder samples (AID 1159570); assay type: functional, cell-based;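 note: parasite growth measured after 72 hours of compound exposure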
[12] = P. falciparum Dd2 growth inhibitors, dose response, SYBR Green, cherry-picked samples (AID 1159567); assay type: functional, cell-based
[13] = P. falciparum Dd2 growth inhibitors, dose response, SYBR Green, dry powder samples (AID 1159566); assay type: functional, cell-based;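 note: potency for growth inhibition with lower SYBR green DNA signal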
[14] = P. falciparum ATP4 D1247Y mutant growth inhibitors, dose response, NITD609-resistant line, SYBR Green, dry powder (AID 1159571); assay type: functional, cell-based;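 note: parasites synchronized at ring stage by sorbitol before testing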
[15] = inhibitors of intracellular T. cruzi replication, confirmation, NIH3T3 host cells, beta-gal luminescence (AID 2044); assay type: functional, cell-based;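 note: intracellular parasites grown in NIH/3T3 mouse fibroblasts as host cells; luminescent beta-galactosidase reporter signal from transgenic T. cruzi replicating inside host cells; inhibitors lower the luminescence signal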
[16] = cytotoxicity toward NIH3T3 fibroblasts, dose response, counter-screen, cell-based, ATP luminescence, mouse fibroblasts (AID 2010); assay type: functional;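 note: cells exposed to compound for about 90 hours before reading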
[17] = target: T5, Microphthalmia-associated transcription factor (Homo sapiens, UniProt O75030); assay: TRPM1 promoter luciferase signal decrease, dose response, MITF inhibitor project, cell-based, SK-MEL-5, cherry-picked, set 3 (AID 493073); assay type: functional
T5 sequence (O75030 whole entry): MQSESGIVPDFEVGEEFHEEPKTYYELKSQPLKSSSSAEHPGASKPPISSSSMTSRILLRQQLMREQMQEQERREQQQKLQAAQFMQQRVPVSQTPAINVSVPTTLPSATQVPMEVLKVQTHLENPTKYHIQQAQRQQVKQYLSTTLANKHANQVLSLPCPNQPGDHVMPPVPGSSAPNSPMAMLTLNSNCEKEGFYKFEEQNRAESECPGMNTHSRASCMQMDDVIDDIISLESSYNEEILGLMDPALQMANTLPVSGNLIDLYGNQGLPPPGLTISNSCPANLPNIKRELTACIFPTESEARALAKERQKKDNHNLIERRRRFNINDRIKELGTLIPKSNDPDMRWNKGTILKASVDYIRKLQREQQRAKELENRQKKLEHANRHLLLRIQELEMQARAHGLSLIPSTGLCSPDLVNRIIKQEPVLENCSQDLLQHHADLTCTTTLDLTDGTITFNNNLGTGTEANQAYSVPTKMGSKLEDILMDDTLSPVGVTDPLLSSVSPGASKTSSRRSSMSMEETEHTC

[18] = CEM21 lymphoblast cell cytotoxicity, dose response, cytotoxicity control for viral fusion inhibitor project, CellTiter-Glo luminescence, cherry-picked (AID 652042); assay type: functional, cell-based;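 note: potency for signal decrease meaning cytotoxicity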
[19] = ZM109 Env clade C HIV-1 fusion inhibitors, dose response, HeLa effector, CEM target cells, luciferase, cherry-pick (AID 652058); assay type: functional, cell-based
[20] = inhibitors of clade B AD8 Env fusion, dose response, cell-based, cherry-pick (AID 652062); assay type: functional;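 note: luciferase signal from cell-cell fusion driven by HIV-1 clade B AD8 Env; potency is for inhibitors of fusion seen as a drop in luminescence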

In the case of `Cc1cc(NC(=O)C2CCCCC2)n(-c2nc3ccccc3[nH]2)n1`, the EC50 [1] is reported as 16.9 µM (active), the EC50 [2] is reported as 13.6 µM (active) and the CC50 [3] is reported as > 40 µM (active). The CC50 [4] was > 20 µM (active) and the IC50 (cells) was 5.56 µM (active).
In the case of `Cc1cc(=O)c2c(O)c(O)ccc2o1`, the IC50 (Leucine aminopeptidase) is reported as 110 µM (active), the IC50 [5] is reported as > 50 µM (not active) and the IC50 [6] is reported as 32.2 µM (active). The IC50 [7] was > 100 µM (active).
With `CCN(CC)S(=O)(=O)c1cc(NC(=O)Cc2ccc(S(=O)(=O)N3CCOCC3)s2)ccc1Cl` the IC50 [8] was > 69.5 µM (inactive) and the IC50 [9] was 11.4 µM (inactive).
With `Nc1ccc(N=Nc2ccc(O)cc2)c(N)n1` the IC50 [6] was 8.44 µM (active) and the CC50 [10] was 25.8 µM (active).
In the case of `O=C(O)COc1ccccc1/C=N/Nc1ccc(S(=O)(=O)Nc2ccc(Cl)cc2)cc1[N+](=O)[O-]`, the IC50 (Aminopeptidase N) is reported as 38.9 µM (active) and the IC50 (Genome polyprotein) is reported as 36.7 µM (active).
For `O=C(NC1CCCCN(Cc2cccc(Cl)c2)C1=O)c1ccc(COc2ccccc2)cc1` (centres undefined), the IC50 [8] was > 69.5 µM (inactive) and the IC50 [9] was 20.7 µM (inactive).
With `Cc1ccc(/N=C2\C(Cl)=C(O)OC2OC(=O)c2ccc(C)cc2)cc1` (centres undefined) the IC50 [8] was > 69.5 µM (inactive) and the IC50 [9] was > 7.73 µM (active).
In the case of `O=C(Nc1ccccc1)N1CCCCN2[C@@H](CO)[C@H](c3ccc(C#Cc4cccnc4)cc3)[C@@H]2C1`, the AC50 [11] is reported as 0.476 µM (active), the AC50 [12] is reported as 0.633 µM (active) and the AC50 [13] is reported as 0.552 µM (active). The AC50 [14] was 0.573 µM (active).
With `CCn1c(/C=C/N(C)c2ccccc2)[n+](CC)c2cc(Cl)ccc21` the EC50 [15] was 0.286 µM (active), the EC50 [16] was 21.5 µM (active) and the AC50 [17] was 6.86 µM (active). The AC50 [18] was 35.5 µM (active), the AC50 [19] was 59.3 µM (active) and the AC50 [20] was 9.72 µM (active).
